Legend:
Bax = experiment: Western blotting of ileal mucosal scrapings, NEC model; format: in vivo, rat; settings: FFH pups, 0.75 mg/kg IP daily, day 4, FIG. 4b
Description: (§1) All the experiments were carried out according to an animal protocol approved by the Animal Research and Care Committee (ARCC) of the Children's Hospital of Pittsburgh. Pregnant time-dated Sprague-Dawley rats (Charles River Labs, Wilmington, Mass.) were induced at term using a subcutaneous injection (1 to 2 U per animal) of Pitocin® (Monarch Pharmaceuticals, Bristol, Tenn.). Immediately after birth, the neonates were weighed and randomized into one of the different treatment groups. Group 1 consisted of neonatal rats left with their mother, and thus were breast-fed. […]
(§2) Newborn rats were sacrificed as indicated and segments of the terminal ileum were isolated. […] Protein concentration in the supernatant was determined using the bicinchoninic acid (BCA) Protein Assay kit form Sigma (St. Louis, Mo.) with bovine serum albumin as standard. […]

Bad = experiment: as above; format: in vivo, rat; settings: FFH pups, 0.75 mg/kg IP daily, day 4, FIG. 4a
Description: as §1, §2

RAGE = experiment: as above; format: in vivo, rat; settings: FFH+semapimod vs FFH, day 4, 45 and 25 kDa bands, FIG. 3c
Description: as §1, §2

HMGB1 = experiment: as above; format: in vivo, rat; settings: FFH+semapimod vs FFH, day 4, 30 kDa band, FIG. 3a
Description: as §1, §2

iNOS = experiment: as above; format: in vivo, rat; settings: FFH animals, 0.75 mg/kg IP daily, day 4, FIG. 5a
Description: as §1, §2

COX-2 = experiment: as above; format: in vivo, rat; settings: FFH animals, 0.75 mg/kg IP daily, day 4, FIG. 5b
Description: as §1, §2

[1] = system: formula-feeding/hypoxia-mediated intestinal injury (experimental NEC); experiment: Animal model of NEC: incidence of NEC and morphologic evaluation of terminal ileum; format: in vivo, Sprague-Dawley rats (newborn); settings: FFH newborn rats
Description: as §1
Newborn rats separated from their mothers were fed a conventional formula and exposed to hypoxia after administration of the drug semapimod (0.1-1 mg/kg, i.p.) as described in Methods. […] Incidence of NEC was calculated as the percentage of animals displaying pathology scores higher than 0 as assessed by histology. Results in graph bars are the mean±S.E.M. (n=15-45 animals for each group, *P<0.05 vs. FFH without semapimod, analyzed by one-way ANOVA followed by Fisher's LSD Test).

p38 MAP kinase = experiment: Activation (phosphorylation) of p38 MAP kinase in IEC-6 cells, Western blotting pp38/p38; format: cell-based, rat
Description: The rat intestinal crypt cell line IEC-6 was purchased from the American Type Culture Collection (ATCC, Manassas, Va.). Cells were grown in tissue culture medium consisting of Dulbeco's modified Eagle's medium with 4.5 gm/L glucose (Bio-Whittaker, Walkersville, Md.) supplemented with 5% fetal bovine serum (Bio-Whittaker), 0.02 mM glutamine (GIBCO; Grand Island, N.Y.), 0.1 U/ml insulin, 100 U/ml penicillin, and 100 μg/ml streptomycin (GIBCO) at 37° C. and 10% CO2. Cells were pretreated with semapimod (0.1-10 μM solutions prepared in 5% dextrose) followed by short exposure to LPS (5 μg/ml), peroxynitrite (ONOO^−, 50 μM) or cytomix (a combination of tumor necrosis factor (TNFα, 10 ng/ml), interleukin-1β (IL-β, 1 ng/ml), and interferon-gamma (IFNγ, 1000 U/ml) for 10 min. Preparation of the ONOO^− solution and cell treatment was as previously reported (36). The lysates were collected for Western blotting analysis as follows: proteins were extracted for 10 min at 4° C. witih lysis buffer (20 mM Tris pH 8.0, 150 mM NaCl, 1% NP-40, 0.5% sodium deoxycholate, 0.1% sodium dodecylsulfate) supplemented with protease and phosphatase inhibitors: 1 mM PMSF, 1 mM benzamidine, 50 μg/ml aprotinin, 0.5 mM Na3VO4, 20 mM NaF, and 0.5 mM phenylarsine oxide. Aliquots containing 50 μg total protein were resolved by SDS-polyacrylamide gel electrophoresis. Gels were electroblotted onto nitrocellulose membranes. Following 1 hr incubation in blocking solution (phosphate-buffered saline, 0.1% Tween-20, 2% fish gelatin, pH 7.5), membranes were incubated with primary (phospho-p38 and p38) and secondary horseradish peroxidase-conjugated antibodies as recommended by manufacturers. Membranes were then impregnated with luminol reagent and exposed to x-ray film.
(a) Rat intestinal epithelial cells (IEC-6) were pretreated with different doses of the drug (0.1-10 μM) for 1 hr. prior to stimulation with 5 μg/ml LPS for 10 min or (b) were pretreated with semapimod (5 μM) for 1 hr. prior to stimulation with 5 μg/ml LPS or ONOO^− (50 μM) for 10 min. The protein lysates were then collected and Western blotting analysis for phospho-p38 and p38 (loading control) was performed as described in Methods. (a) A representative blot for pp38/p38 and densitometric analysis showing the ratio of pp38/p38 band intensity. Ctrl are non-stimulated cells. Results in graph bars are the mean±S.E.M. (n=3 independent experiments, *P<0.05 vs. LPS treated cells without pretreatment with semapimod, analyzed by one-way ANOVA followed by Fisher's LSD Test).
The present inventors have previously shown that LPS causes rapid but transient activation of p38 MAP kinase as determined by increased phosphorylation of p38. […] The effect of semapimod on p38 activation by inflammatory mediators other than LPS was evaluated.

[2] = system: endotoxin-induced TNF release and shock; settings: adult male Lewis rats, icv. vs intravenous; cited from earlier work
[3] = 0.1-10 μM pretreatment 1 hr, then 5 μg/ml LPS 10 min, FIG. 6a

## C/C(=N\NC(=N)N)c1cc(NC(=O)CCCCCCCCC(=O)Nc2cc(/C(C)=N/NC(=N)N)cc(/C(C)=N/NC(=N)N)c2)cc(/C(C)=N/NC(=N)N)c1 [semapimod]
Bax
  expression of Bax protein in mucosal scrapings: significantly decreased
Bad
  expression of Bad protein in mucosal scrapings: significantly decreased
RAGE
  expression of RAGE in ileal mucosal scrapings: expression of RAGE was reduced
HMGB1
  HMGB1 protein expression in ileal mucosa: reduced after administration of semapimod
iNOS
  expression of iNOS protein in terminal ileum: significantly decreased
COX-2
  expression of COX-2 protein in terminal ileum: significantly decreased
[1]; 0.75 mg/kg i.p., day 4, FIG. 3b, 0.75 mg/kg
  severity of intestinal injury / morphology as assessed by histology: decrease in the severity of injury
[1]; semapimod 0.1-1 mg/kg i.p. daily, terminal ileum day 4, FIG. 2
  doses that prevented intestinal damage (reduction in the incidence of NEC): higher than 0.5 mg/kg
p38 MAP kinase; 5 μM semapimod pretreatment 1 hr, ONOO− 50 μM 10 min, FIG. 6b
  phosphorylation of p38 induced by ONOO−: not inhibited
p38 MAP kinase; [3]
  concentrations with maximal effect on LPS-induced phosphorylation of p38: higher than 1 μM
  phosphorylation of p38 induced by LPS: dose dependently inhibited
p38 MAP kinase; semapimod pretreatment, cytomix 10 min (not shown)
  p38 activation by a mixture of TNFα, IL-1β and IFN-γ: failed to inhibit
[2]
  effectiveness of icv. administration in suppressing endotoxin-induced TNF release and shock as compared with intravenous: 100,000 fold

From US7795314B2, “Protective role of semapimod in necrotizing enterocolitis” (Cytokine PharmaSciences, Inc., priority 2005, dated 2010)
